{"source": "patent US9408891B2", "about": "“Methods of using gelsolin to treat or prevent bacterial sepsis” (priority 2003, dated 2016)", "key": {"[1]": {"biological_target": "T1, recombinant human gelsolin (rhGLS) (Homo sapiens, UniProt P06396)", "T1 construct": "purchased Biogen IDEC, Inc., Cambridge, Mass; host or cells: E. coli", "T1 sequence (P06396 28-782)": "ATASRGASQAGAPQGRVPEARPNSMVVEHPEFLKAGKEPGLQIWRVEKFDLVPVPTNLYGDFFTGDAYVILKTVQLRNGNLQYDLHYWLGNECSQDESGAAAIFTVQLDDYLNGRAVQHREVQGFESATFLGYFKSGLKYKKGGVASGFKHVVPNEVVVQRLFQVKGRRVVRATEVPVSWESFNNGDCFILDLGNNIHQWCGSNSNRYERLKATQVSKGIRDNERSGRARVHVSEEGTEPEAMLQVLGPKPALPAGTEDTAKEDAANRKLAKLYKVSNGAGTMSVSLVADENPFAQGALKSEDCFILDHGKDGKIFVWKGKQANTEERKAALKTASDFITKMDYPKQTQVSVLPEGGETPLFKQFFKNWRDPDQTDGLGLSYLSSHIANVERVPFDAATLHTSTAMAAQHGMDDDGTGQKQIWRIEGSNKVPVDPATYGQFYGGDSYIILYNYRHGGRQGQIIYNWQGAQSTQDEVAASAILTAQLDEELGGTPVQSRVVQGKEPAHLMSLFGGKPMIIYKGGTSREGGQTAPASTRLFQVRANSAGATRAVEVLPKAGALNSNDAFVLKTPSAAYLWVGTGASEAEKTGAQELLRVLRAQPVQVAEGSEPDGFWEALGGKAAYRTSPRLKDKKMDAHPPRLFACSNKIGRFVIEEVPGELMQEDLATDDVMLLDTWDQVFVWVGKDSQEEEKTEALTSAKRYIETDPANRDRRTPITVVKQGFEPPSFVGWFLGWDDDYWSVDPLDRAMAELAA", "experiment": "Change of gelsolin OD at 280 nm after adding lipids", "assay_type": "binding", "conditions": "OD 280 nm", "description": "(§1) Therefore, to determine changes of gelsolin OD at 280 nm, different amounts of LPS, LPA and PS were added to recombinant human gelsolin (rhGLS) solutions and OD emission spectra were recorded using spectrophotometer Genesys 6 (Thermo-Spectronic, USA)."}, "[2]": {"biological_target": "T2, pyrene-labeled SEQ ID No:1 (gelsolin residues 160-169) (Homo sapiens, UniProt P06396)", "T2 construct": "made in house; host or cells: solid phase peptide synthesis", "experiment": "Pyrene excimer fluorescence of pyrene-labeled SEQ ID No:1 after adding lipids", "assay_type": "binding", "conditions": "2 μM pyrene peptide", "description": "as §1\nInteraction of LPS and gelsolin was examined using rhodamine B- and pyrene-labeled SEQ ID No:1 (QRLFQVKGRR). The effect of LPS on gelsolin was determined in terms of the rhodamine-B fluorescent changes of PBP10 peptide in the presence of different lipids (FIG. 1C); and the fluorescence emission spectra of pyrene-labeled SEQ ID No:1 (2 μM) in the presence of LPS from Escherichia coli (1.2 μM), PIP2 (0.82 μM) and LPA (0.82 μM) (FIG. 1D) The results using the pyrene-derivatized gelsolin peptide confirmed the LPS induced clustering of the peptide with resulting excimer fluorescence of the pyrene group, which was evident as a large increase in fluorescence emission at 480 nm."}, "[3]": {"biological_target": "T1, recombinant human gelsolin (rhGLS)", "experiment": "Actin filament severing activity of purified gelsolin (pyrene F-actin depolymerization)", "assay_type": "biochemical", "conditions": "molar basis comparison", "description": "To determine gelsolin's severing activity, rates of fluorescence decrease were evaluated during depolymerization. Monomeric G-actin was prepared from an acetone powder of rabbit skeletal muscle according to previously published methods (Spudich et al., J. Biol. Chem […]). The non-polymerizing solution contained 2 mM TRIS, 0.2 mM CaCl2, 0.5 mM ATP (adenosine triphosphate), 0.2 mM DTT (dithiothreitol) pH 7.4. Actin was polymerized by adding 150 mM KCl and 2 mM MgCl2 to the G-actin solutions and incubating for 1 hour at room temperature.\nFor F-actin severing assays, in general, a small volume (typically 5 μl) of the gelsolin composition is added to a similar volume of pyrene-labeled F-actin at a concentration adjusted to provide an actin:gelsolin ratio of approximately 10:1 (typically 1 μM gelsolin and 10 μM actin). This mixture is the diluted to 0.5 μM in a larger volume of F-actin buffer, and the filament severing efficiency is calculated from the initial slope of the fluorescence change. This reflects the rate of depolymerization that, in turn, is proportional to the number of cuts made by gelsolin. The LPS/gelsolin reaction can be done under any ionic condition, and the addition to F-actin requires the presence of […] Ca^2+ to activate the gelsolin. […] The actin nucleation reaction is similar except that in the latter case, the gelsolin/LPS mixture is added to a more dilute solution of G-actin (typically, 1 or 2 μM) in low ionic strength buffer followed immediately by addition of 150 mM KCI and 2 mM MgCl2 to initiate polymerization.\nAs shown, recombinant human gelsolin (rhGLS) (FIG. 4A) and blood serum (FIG. 4B) severing activity was measured in 0.4 μM pyrene-labeled F-actin samples (polymerized with 50% pyrene-labeled G-actin), after adding gelsolin (16 nM)/serum (2.5 μl), or their combination with one of the following: LPS (from different species), PIP2 (phosphatidyl-inositol-4,5-bisphosphate), LPA (lysophosphatidic acid), lipid A (the LPS derivative lacking polysaccharide) or PS (phosphatidylserine). The fluorescence intensity of F-pyrene actin was then monitored for 10 minutes, and the severing activity was calculated based on decreasing fluorescence. Severing activity was determined from a decrease in rate of fluorescence during depolymerization, and the depolymerization rate was calculated from the slope of the early decrease in fluorescence."}}, "note": "Entries after “also recorded” stand apart in the source; their conditions may differ."}
{"substance": "phosphatidylserine [PS]", "values": [{"measurement": "effect on absorbance of gelsolin", "setting": "[1]", "value": "had no effect"}, {"measurement": "induction of pyrene excimer formation (emission 480 nm)", "setting": "[2]", "value": "had no effect"}, {"measurement": "inhibitory effect on severing activity of purified gelsolin", "setting": "[3]", "value": "had no effect; also recorded: no inhibitory effect; also recorded: have no effect"}]}
